According to patent US7230029B2, “Fatty acid analogues for the treatment of proliferative skin disorders” (Thia Medica AS, priority 2000, dated 2007):

Columns and labels:
Tg-1 = Tg-1 expression by indirect immunofluorescence microscopy; type: cell-based, human
Source text: (§1) In addition, expression of Inv and Tg-1 was examined by indirect immunofluorescence microscopy (FIG. 3).

[1] = tested on: transglutaminase type 1 (Tg-1); assay: Tg-1 expression by ELISA; type: cell-based, human; settings: normalized to cell number
Description: (§2) Normal adult human epidermal keratinocytes were isolated from human skin obtained after plastic surgery. First passage keratinocytes were grown in serum-free KGM (GIBCO BRL/Life Technologies, Inc.) and replated in 75 cm^2 culture flask or in 96-well microtiterplates preheated at 37° C. at a density of 3500 cells/well. Cells were incubated in a humidified atmosphere of 5% CO2 at 37° C. When cells reached 40% confluence they were treated with growth medium containing selective PPAR ligands (either alone or in combinations as indicated), tetradecylthioacetic acid (TTA) or 1,2 mM Ca^2+. Wy14643 was obtained from Calbiochem, BRL49653 was kindly provided by J. Fleckner, Novo Nordisk), L165041 was kindly provided by D. E. Moller (Merck Research Laboratories, Rahway, N.J.). TTA was manufactured in accordance with example 1. Medium was changed every day. For differentiation, keratinocytes at 40% confluence (day 0) were treated with 1,2 mM CaCl2. Medium was changed every other day. […]
Cells were subjected to two freeze-thaw cycles and transglutaminase type 1 (Tg-1) was determined by ELISA. […] The amount of transglutaminase was measured by quantifying the OPD reaction with an ELISA-reader at 490 nm and subtracting background at 650 nm. […]
(§3) Differentiation of keratinocytes is correlated with an increase in cell size. […] In parallel the expression of Tg-1 was monitored using an ELISA-based assay (FIG. 3b).

Inv [2] = assay: Inv expression by indirect immunofluorescence microscopy; type: cell-based, human
Source text: as §1

NHK cells = assay: Viability/proliferation by modified MTT assay; type: cell-based, human
Description: as §2
Viability/proliferation was measured by a modification of the MTT assay introduced by Mosmann T (J Immunol Methods 65:55–63, 1983). […] The amount of formazan was quantified in an ELISA-reader at 540 nm. […]
as §3

CD36/FAT = CD36/FAT mRNA expression in NHK treated with PPAR activators and TTA; type: cell-based, human; settings: NHK treated over a period of three days
Description: (§4) Normal adult human epidermal keratinocytes were isolated from human skin obtained after plastic surgery. First passage keratinocytes were grown in serum-free KGM (GIBCO BRL/Life Technologies, Inc.) and replated in 75 cm^2 culture flask or in 96-well microtiterplates preheated at 37° C. at a density of 3500 cells/well. Cells were incubated in a humidified atmosphere of 5% CO2 at 37° C. When cells reached 40% confluence they were treated with growth medium containing selective PPAR ligands (either alone or in combinations as indicated), tetradecylthioacetic acid (TTA) or 1,2 mM Ca^2+. Wy14643 was obtained from Calbiochem, BRL49653 was kindly provided by J. Fleckner, Novo Nordisk), L165041 was kindly provided by D. E. Moller (Merck Research Laboratories, Rahway, N.J.). TTA was manufactured in accordance with example 1. Medium was changed every day. For differentiation, keratinocytes at 40% confluence (day 0) were treated with 1,2 mM CaCl2. Medium was changed every other day. HaCaT cells were obtained from L. Aarenstrup (Danish Cancer Society, Denmark). HaCaT cells were cultured in Dulbecco's modified Eagle's Medium (DMEM) with 10% fetal calf serum (FCS) and antibiotics (100 u/ml penicillin, 1 mg/ml streptomycin sulphate) in a humidified atmosphere of 5% CO2 at 37° C. Medium was changed every other day.
(§5) To evaluate how TTA and the various PPAR activators affected expression of a known PPAR responsive gene and differentiation of keratinocytes, we first measured the mRNA levels of CD36/FAT and the two differentiation markers, Inv and Tg-1 in NHK treated with PPAR selective activators and TTA over a period of three days (FIG. 1a).

human keratinocytes = assay: Keratinocyte differentiation marker gene expression (summary statements); type: cell-based
Description: In the present study we have in detail analyzed the expression of the PPARs during ex vivo differentiation of human keratinocytes, in isolated basal and suprabasal cells, and in sections of human skin. […] All three PPAR subtype selective ligands either alone or in combination only modestly effected keratinocyte proliferation.
(§6) Normal adult human epidermal keratinocytes were isolated from human skin obtained after plastic surgery. First passage keratinocytes were grown in serum-free KGM (GIBCO BRL/Life Technologies, Inc.) and replated in 75 cm^2 culture flask or in 96-well microtiterplates preheated at 37° C. at a density of 3500 cells/well. Cells were incubated in a humidified atmosphere of 5% CO2 at 37° C. When cells reached 40% confluence they were treated with growth medium containing selective PPAR ligands (either alone or in combinations as indicated), tetradecylthioacetic acid (TTA) or 1,2 mM Ca^2+. Wy14643 was obtained from Calbiochem, BRL49653 was kindly provided by J. Fleckner, Novo Nordisk), L165041 was kindly provided by D. E. Moller (Merck Research Laboratories, Rahway, N.J.). TTA was manufactured in accordance with example 1. Medium was changed every day. For differentiation, keratinocytes at 40% confluence (day 0) were treated with 1,2 mM CaCl2. Medium was changed every other day. HaCaT cells were obtained from L. Aarenstrup (Danish Cancer Society, Denmark). […]

Inv [3] = assay: Inv protein expression in NHK by Western blotting; type: cell-based, human
Description: as §4

Inv [4] = assay: Inv mRNA expression in NHK (RT-PCR); type: cell-based, human; settings: NHK treated over a period of three days
Description: as §6, §5

| Structure (SMILES) | Tg-1 expression (Tg-1) | Tg-1 expression [1] | Inv expression (Inv [2]) | inhibition of NHK cell proliferation (NHK cells) | expression of CD36/FAT mRNA (CD36/FAT) | keratinocyte differentiation marker gene expression (human keratinocytes) | Inv protein expression (Inv [3]) | Inv mRNA expression (Inv [4]) |
| --- | --- | --- | --- | --- | --- | --- | --- | --- |
| [Ca+2].[Cl-].[Cl-] [CaCl2] | comparable levels of expression | significantly induced Tg-1 expression | comparable levels of expression | only marginal | did not induce expression of CD36/FAT | – | – | – |
| CCCc1c(OCCCOc2ccc(OCC(=O)O)cc2)ccc(C(C)=O)c1O [L165041] | – | – | in a dose-dependent manner induced Inv expression | – | induced a significant dose-dependent expression of CD36 | induced in a dose-dependent manner expression of involucrin | dose-dependent induction of Inv protein | dose-dependent induction of Inv mRNA expression |
| Cc1cccc(Nc2cc(Cl)nc(SCC(=O)O)n2)c1C [Wy14643] | – | – | – | – | induced expression of CD36/FAT | – | – | modest induction of Inv mRNA expression |
